# Source: patent US20190183948A1, “USE OF BCL-XL INHIBITOR AND ONCOLYTIC VIRUS IN PREPARATION OF ANTITUMOR DRUG” (GUANGZHOU VIROTECH PHARMACEUTICAL CO., LTD., priority 2016, published 2019)
# Legend:
# Mcl-1 = Mcl-1 (Homo sapiens, UniProt Q07820); conditions: cited from earlier work
# Bcl-B = molecular target: T1, Bcl-B (Homo sapiens, UniProt Q9HD36); conditions: cited from earlier work
# T1 sequence (Q9HD36 1-204): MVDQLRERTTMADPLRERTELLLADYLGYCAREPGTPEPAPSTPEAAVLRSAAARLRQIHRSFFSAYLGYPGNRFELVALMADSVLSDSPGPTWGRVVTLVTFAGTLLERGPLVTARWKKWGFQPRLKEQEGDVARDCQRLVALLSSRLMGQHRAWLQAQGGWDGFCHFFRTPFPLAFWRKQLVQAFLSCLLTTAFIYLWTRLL
# Bfl-1 = molecular target: T2, Bfl-1 (Homo sapiens, UniProt Q16548); conditions: cited from earlier work
# T2 sequence (Q16548 1-175): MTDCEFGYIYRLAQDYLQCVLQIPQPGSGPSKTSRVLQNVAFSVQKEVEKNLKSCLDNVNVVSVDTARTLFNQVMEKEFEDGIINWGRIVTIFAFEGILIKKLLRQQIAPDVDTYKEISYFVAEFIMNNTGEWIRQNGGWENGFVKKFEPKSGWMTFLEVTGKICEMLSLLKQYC
# [1] = test system: Hep3B transplantable tumor; experiment: Transplantable tumor growth in nude mice, Hep3B (Example 4); type: in vivo, BALB/c nude mice; conditions: Hep3B s.c. in nude mice; ABT-263 i.p. 10 mg/kg/d, M1 tail vein 2×10^6 PFU/time, three injections
# Protocol: (§1) This experiment was designed in a randomized, single-blind way. 5×10^6 Hep3B or LoVo cells were subcutaneously injected into dorsa of the 4-week-aged BALB/c nude mice.
# (§2) The weight, length and width of the tumor were measured every two days, and the volume of the tumor was calculated according to the formula: (length×width 2)/2. After the volume of the tumor was measured, One-way ANOVA statistics was carried out, wherein *** represented p<0.001 and **represented p<0.01.
# Bcl-w = molecular target: T3, Bcl-w (Homo sapiens, UniProt Q92843); conditions: cited from earlier work
# T3 sequence (Q92843 1-193): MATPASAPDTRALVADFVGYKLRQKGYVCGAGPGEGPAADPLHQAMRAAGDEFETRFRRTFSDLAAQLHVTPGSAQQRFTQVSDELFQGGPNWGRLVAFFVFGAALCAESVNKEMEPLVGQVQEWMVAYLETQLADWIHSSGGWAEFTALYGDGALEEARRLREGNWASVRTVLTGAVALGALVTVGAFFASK
# A1 = molecular target: T4, A1 (Homo sapiens, UniProt Q16548); conditions: cited from earlier work
# T4 sequence (Q16548 1-175): T2 sequence (Q16548 1-175)
# [2] = test system: human liver cancer cell Hep3B; experiment: MTT survival rate (Example 2), Hep3B; type: cell-based; conditions: 48 hours, inhibitor 100 nM, M1 MOI=0.001
# Protocol: a) Inoculation of cells and administration treatment: The cells in the exponential growth phase were selected and added into a DMEM complete culture medium (containing 10% fetal bovine serum and 1% penicillin/streptomycin (Life Technologies)) to prepare a cell suspension. The cells were inoculated into a 96-well culture plate at a density of 4×10^3/well. After 12 hours, the cells were completely adherent to the wall. […] The dose was used as follows: M1 virus that infected the cells; different dose gradient set for M1 virus. b) Reaction of MTT (3-(4,5-dimethylthiazol-2-yl)-2,5-diphenyltetrazolium bromide or methyl thiazolyl tetrazolium) with succinate dehydrogenase in the cells: 48 hours after culture, 20 μl of MIT (5 mg/ml) was added into each well, and was incubated for further 4 hours. After incubation, granular blue and purple formazan crystals formed in the living cells were observed by microscopic examination. c) Dissolution of formazan particles formed in the cells was accomplished as follows: the supernatant was carefully sucked off, and 100 μl/well of DMSO was added to dissolve the formed crystals, and was shaken in a microoscillator for 5 minutes. Then, the optical density (OD value) of each well was detected in an enzyme linked detector at a wavelength of 570 nm. The experiments were repeated for 3 times for each group. […]
# [3] = test system: LoVo transplantable tumor; experiment: Transplantable tumor growth in nude mice, LoVo (Example 4); type: in vivo, BALB/c nude mice; conditions: LoVo s.c. in nude mice; ABT-263 i.p. 10 mg/kg/d, M1 tail vein 2×10^6 PFU/time, three injections
# Protocol: as §1, §2
# Chain of Mcl-1 (Q07820 whole entry, species assumed): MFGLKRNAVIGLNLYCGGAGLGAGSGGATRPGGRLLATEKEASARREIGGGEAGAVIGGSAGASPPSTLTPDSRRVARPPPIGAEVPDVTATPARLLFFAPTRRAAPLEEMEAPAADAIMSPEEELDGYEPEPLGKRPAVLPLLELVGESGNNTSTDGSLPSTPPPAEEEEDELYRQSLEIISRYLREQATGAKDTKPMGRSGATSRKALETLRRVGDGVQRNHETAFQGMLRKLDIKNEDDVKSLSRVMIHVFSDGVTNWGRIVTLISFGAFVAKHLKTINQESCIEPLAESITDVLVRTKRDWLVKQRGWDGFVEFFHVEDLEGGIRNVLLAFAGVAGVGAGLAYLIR
SMILES,binding / inhibitory effect on Mcl-1 (Mcl-1),inhibitory effect on Bcl-B (Bcl-B),inhibitory effect on Bfl-1 (Bfl-1),tumor volume vs control group [1],Ki (Bcl-w),binding to A1 (A1),survival rate of the tumor cells [2],tumor volume vs control group [3]
CC1(C)CCC(CN2CCN(c3ccc(C(=O)NS(=O)(=O)c4ccc(NCC5CCOCC5)c([N+](=O)[O-])c4)c(Oc4cnc5[nH]ccc5c4)c3)CC2)=C(c2ccc(Cl)cc2)C1 [ABT-199],no activity,–,–,–,–,–,–,–
CN(C)CC[C@H](CSc1ccccc1)Nc1ccc(S(=O)(=O)NC(=O)c2ccc(N3CCN(Cc4ccccc4-c4ccc(Cl)cc4)CC3)cc2)cc1[N+](=O)[O-] [ABT-737],no inhibitory effect,no inhibitory effect,no inhibitory effect,–,–,–,–,–
CC1(C)CCC(c2ccc(Cl)cc2)=C(CN2CCN(c3ccc(C(=O)NS(=O)(=O)c4ccc(N[C@H](CCN5CCOCC5)CSc5ccccc5)c(S(=O)(=O)C(F)(F)F)c4)cc3)CC2)C1 [ABT-263],binds weakly,–,–,slight shrinkage of the tumor volume,≤ 1 nM,binds weakly,88.8%,slight shrinkage of the tumor volume
